Source: US20250066363A1, “Bicyclic DGK Inhibitors” (Incyte Corporation, priority 2023, published 2025)

Legend:
DGKα = DGKα (Homo sapiens (Human), UniProt P23743); assay: In vitro DGKα inhibition assay (ADP-Glo); assay type: biochemical; settings: first column of Table A; His-tagged human recombinant DGKα 0.1 nM, 50 μM ATP, 20 μM DLG
DGKζ = DGKζ (Homo sapiens (Human), UniProt Q13574); assay: In vitro DGKζ inhibition assay (ADP-Glo); assay type: biochemical; settings: second column of Table A, head printed DGKα, presumably DGKζ; His-tagged human recombinant DGKζ 0.4 nM, 30 μM ATP, 20 μM DLG
Sequence of DGKζ (Q13574 whole entry): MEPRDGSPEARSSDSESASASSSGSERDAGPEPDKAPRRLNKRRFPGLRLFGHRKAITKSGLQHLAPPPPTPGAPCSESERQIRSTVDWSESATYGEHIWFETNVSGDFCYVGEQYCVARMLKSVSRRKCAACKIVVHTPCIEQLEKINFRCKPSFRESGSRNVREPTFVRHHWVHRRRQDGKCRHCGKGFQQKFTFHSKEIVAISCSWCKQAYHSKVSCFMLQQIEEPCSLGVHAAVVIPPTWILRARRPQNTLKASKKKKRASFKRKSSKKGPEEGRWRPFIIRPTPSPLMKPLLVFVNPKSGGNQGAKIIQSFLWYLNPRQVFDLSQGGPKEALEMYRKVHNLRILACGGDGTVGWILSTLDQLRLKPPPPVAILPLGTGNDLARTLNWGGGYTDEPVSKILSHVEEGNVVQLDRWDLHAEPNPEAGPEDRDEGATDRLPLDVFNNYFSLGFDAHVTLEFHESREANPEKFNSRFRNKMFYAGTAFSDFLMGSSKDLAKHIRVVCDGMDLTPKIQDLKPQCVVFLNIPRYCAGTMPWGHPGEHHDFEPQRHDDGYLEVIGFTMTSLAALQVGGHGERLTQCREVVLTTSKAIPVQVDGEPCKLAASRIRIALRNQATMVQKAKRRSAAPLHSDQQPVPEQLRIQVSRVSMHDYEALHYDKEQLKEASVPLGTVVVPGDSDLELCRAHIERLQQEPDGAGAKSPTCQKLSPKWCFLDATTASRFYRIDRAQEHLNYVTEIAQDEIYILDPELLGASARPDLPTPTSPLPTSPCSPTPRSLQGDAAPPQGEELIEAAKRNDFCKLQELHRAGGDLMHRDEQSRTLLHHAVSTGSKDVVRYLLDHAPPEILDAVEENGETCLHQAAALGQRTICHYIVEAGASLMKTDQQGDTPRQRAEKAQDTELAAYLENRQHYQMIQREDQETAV

Sequence of DGKα (P23743 whole entry): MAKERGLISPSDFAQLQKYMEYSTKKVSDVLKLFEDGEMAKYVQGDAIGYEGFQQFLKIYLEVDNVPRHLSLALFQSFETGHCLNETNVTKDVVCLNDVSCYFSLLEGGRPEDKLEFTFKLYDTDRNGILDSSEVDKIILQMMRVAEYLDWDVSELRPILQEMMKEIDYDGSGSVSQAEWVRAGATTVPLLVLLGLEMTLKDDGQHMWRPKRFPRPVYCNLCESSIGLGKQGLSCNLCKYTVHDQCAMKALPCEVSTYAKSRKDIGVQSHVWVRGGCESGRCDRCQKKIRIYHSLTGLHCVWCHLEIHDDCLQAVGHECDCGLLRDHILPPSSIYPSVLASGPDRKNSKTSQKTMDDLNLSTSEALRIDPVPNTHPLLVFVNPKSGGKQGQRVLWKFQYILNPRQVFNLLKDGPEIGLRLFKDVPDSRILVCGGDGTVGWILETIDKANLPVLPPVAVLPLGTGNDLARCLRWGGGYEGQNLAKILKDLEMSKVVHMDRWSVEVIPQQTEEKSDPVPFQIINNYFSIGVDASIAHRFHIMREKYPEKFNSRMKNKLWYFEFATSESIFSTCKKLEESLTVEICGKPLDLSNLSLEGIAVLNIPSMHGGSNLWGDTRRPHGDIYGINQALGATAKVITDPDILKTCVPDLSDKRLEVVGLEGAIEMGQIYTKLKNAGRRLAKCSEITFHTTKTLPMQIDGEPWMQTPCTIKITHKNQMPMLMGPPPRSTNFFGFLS

CC[C@@H]1CN(c2nc(=O)n(C)c3c2nc(C)n3C[C@H]2OCC[C@H]2O)[C@@H](C)CN1[C@H](CC)c1ccc(C(F)(F)F)cc1 [Example 72, 6-((2S,5R)-5-ethyl-2-methyl-4-((R)-1-(4-(trifluoromethyl)phenyl)propyl)piperazin-1-yl)-9-(((2R,3R)-3-hydroxytetrahydrofuran-2-yl)methyl)-3,8-dimethyl-3,9-dihydro-2H-purin-2-one]
IC50 (DGKα): ≤ 10 nM
IC50 (DGKζ): ≤ 10 nM
